Here are results for four molecules from ChEMBL document CHEMBL6087419, “Structural insights into tryptamine psychedelics: The role of hydroxyl indole ring site in 5-HT2A receptor activation and psychedelic-like activity” (Eur J Med Chem, 2025).

Activity calls are given as the source filed them. No cut-off for these calls is given here.

Assay [1] has as its system Mus musculus. The assay is described as follows: Psychedelic like activity in male BALB/c mouse assessed as induction of head-twitch responses administered intraperitoneally and measured after 30 mins by video recording analysis. Format: functional. To be noted: 0.5 h, route ip.
The test system of assay [2] is Mus musculus. Kind of assay: Psychedelic like activity in male BALB/c mouse assessed as induction of head-twitch responses at 3 to 10 mg/kg, ip measured after 30 mins by video recording analysis. Format: functional, organism-based. To be noted: dose 3-10 mg/kg.
In assay [3] the test system is Mus musculus. Kind of assay: Psychedelic like activity in male BALB/c mouse assessed as induction of head-twitch responses at 1 mg/kg, ip measured after 30 mins by video recording analysis. The class given is functional, organism-based.

As usually defined, the ED50 is the dose at which the effect has come halfway, by size or by number of responders. Turning to `CN(C)CCc1c[nH]c2cccc(O)c12` [PSILOCIN], in assay [1], the ED50 stood at 0.86 mg/kg. Further, in assay [2], the result was inactive. In addition, the result in assay [3] was Active.
`CN(C)CCc1c[nH]c2c(O)cccc12`: in assay [3], the result was inactive.
The same measure, in the same setting: to `CN(C)CCc1c[nH]c2ccc(O)cc12` belongs “Active”.
As to `CN(C)CCc1c[nH]c2cc(O)ccc12`, the result in assay [3] was inactive.
